Measured values as given in patent US20240280561A1, “COMPOSITIONS AND METHODS FOR TREATING AND/OR IDENTIFYING AN AGENT FOR TREATING INTESTINAL CANCERS” (Dana-Farber Cancer Institute, Inc., priority 2022, published 2024).

B1: recombinant WNT3A: recombinant WNT3A used as a Wnt activator (protein, UniProt P56704 19-352, looked up)
Protein Wnt-3a: SYPIWWSLAVGPQYSSLGSQPILCASIPGLVPKQLRFCRNYVEIMPSVAEGIKIGIQECQHQFRGRRWNCTTVHDSLAIFGPVLDKATRESAFVHAIASAGVAFAVTRSCAEGTAAICGCSSRHQGSPGKGWKWGGCSEDIEFGGMVSREFADARENRPDARSAMNRHNNEAGRQAIASHMHLKCKCHGLSGSCEVKTCWWSQPDFRAIGDFLKDKYDSASEMVVEKHRESRGWVETLRPRYTYFKVPTERDLVYYEASPNFCEPNPETGSFGTRDRTCNVSSHGIDGCDLLCCGRGHNARAERRREKCRCVFHWCCYVSCQECTRVYDVHTCK

Tests used:
[1] = system: SOX9 expression in HT-115 cells; test: SOX9 protein expression in CRC cells treated with WNT and TGF-β pathway agents (immunoblot); format: cell-based, human; details: CRC cells (HT-115)
From the text: AXIN2, SOX9 and […] (loading control) protein expression in HT-115 (Apc Mutant) cells treated with DMSO, rWNT3A or indicated concentrations of WNT-inhibitor ICG-001 by immunoblot (middle panel). SOX9 and β-actin (loading control) protein expression in HT-115 cells expressing GFP or dominant-negative (dn) TCF4 (right panel); S.E.=short exposure, L.E.=long exposure. […] Protein expression of SOX9 and β-actin (loading control) in HT-115 cells treated with indicated concentration of rTGF-β or TGF-β inhibitor.
Immunoblot analysis was performed as previously described (Wong et al. (2018) Nature medicine 24: 968-977). Briefly, cells were lysed in RIPA buffer supplemented with a protease inhibitor cocktail (Roche). Whole cell extracts were resolved by SDS-PAGE, transferred to PVDF membranes, and probed with indicated primary antibodies. Bound antibodies were detected with horseradish peroxidase (HRP)-conjugated secondary antibodies and chemiluminescent HRP substrate.
The following agents were used: recombinant WNT3A as a Wnt activator and ICG-001 as a Wnt pathway inhibitor, all of which were employed at indicated concentrations and durations.
To examine whether SOX9 is regulated by stem cell and differentiation cues, the impact of the WNT and BMP/TGF-β signaling pathways on SOX9 expression, respectively, was evaluated. […]

[2] = system: PROM1 intronic enhancer reporter in HEK293T cells; test: PROM1 enhancer GFP reporter assay; format: cell-based; details: GFP reporter transiently transfected into HEK293T cells
From the text: A 537-bp region in intron 1 of PROM1 (hg19, ch4:[…], negative strand) was identified as a putative SOX9-regulated enhancer based on V5-SOX9 and H3K27Ac CHIP data. PCR-amplified products or gene blocks (gBlocks, IDT) consisting of the putative PROM1 enhancer, a minimal promoter, eGFP, and PGK-hygromycin resistance cassette was cloned into the lentiviral LV 1-5 backbone vector using Gibson modular assembly platform (Akama-Garren et al. (2016) Sci Rep 6: 16836). Briefly, PROM1 enhancer was generated as a gBlock by adding the following primer sequencing to the 5′ and 3′ end of the 537-bp region, respectively: 5′→3′ Forward (site 1), […] and 5′→3′ Reverse, […] (site 2); the minimal promoter was PCR amplified from the 7TFP WT CDH1 reporter plasmid using the following primer sequences: 5′→3′ Forward (includes site 2), […] and 5′→3′ Reverse, AGGCCTCGGGATTcctagg[…] (includes site 3); eGFP was generated by adding the following primer sequences to the 5′ and 3′ end, respectively: 5′→3′ Forward (site 3), AAACCGCTGTTcctaggAATCCCGAGGCCT and 5′→3′ Reverse, GACCCGACATTagcgctACAGCTTAAGCGG (site 4); and PGK-hygro was PCR amplified from plenti-PGK-hygro-gateway destination vector using the following primers: 5′→3′ Forward (includes site 4), GACCCGACATTagcgct[…] […]
To investigate the precise mechanism of PROM1 activation, V5-SOX9 and H3K27Ac CHIP-seq data were analyzed. […]

| Molecule | SOX9 expression [1] | PROM1 enhancer reporter activity, stimulation [2] [fold] |
| --- | --- | --- |
| O=C1[C@H](Cc2ccc(O)cc2)N2C(=O)CCN(C(=O)NCc3ccccc3)[C@H]2CN1Cc1cccc2ccccc12 [ICG-001] | reduced SOX9 expression |  |
| B1 |  | 3 |
